Key:
22Rv1 cells = test: Dextran uptake assay; type: cell-based; details: 2µM for 30min before assay, TMR-dextran 1 mg/mL 30min
LNCaP-abl cells = test: Cell viability after pre-incubation with endocytosis pathway inhibitors; type: cell-based; details: EIPA 50µM 30min, then compound 10µM, PrestoBlue after 3 days, n=2

With `CC(C)(C)C(=O)Nc1ccc2c(c1)C(=O)C(=O)c1ccccc1-2` [SF16170, SF1670] the “macropinocytosis (TMR-dextran uptake)” value (22Rv1 cells) was “enhanced macropinocytosis”.
In the case of `CNC(=O)c1ccc(N2C(=S)N(c3ccc(C#N)c(C(F)(F)F)c3)C(=O)C2(C)C)cc1F` [enzalutamide, Enzalutamide], the “antiproliferative activity after EIPA pre-incubation” value (LNCaP-abl cells) is reported as “did not affect”.
In the case of `C#C[C@]1(O)CC[C@H]2[C@@H]3CCC4=CC(=O)CC[C@]4(C)[C@H]3CC[C@@]21C` [ethisterone, Ethisterone], the “antiproliferative activity after EIPA pre-incubation” value (LNCaP-abl cells) is reported as “did not affect”.
